According to patent US8946215B2, “Hydroxy-substituted imidazo[1,2-a]pyridinecarboxamides and their use” (Bayer Pharma Aktiengesellschaft, priority 2012, dated 2015):

Target: T1, recombinant guanylate cyclase reporter cell line (Rattus norvegicus, UniProt P19686+P20595)
T1 construct: expressed in transfected cells
T1 sequence (P20595 1-619): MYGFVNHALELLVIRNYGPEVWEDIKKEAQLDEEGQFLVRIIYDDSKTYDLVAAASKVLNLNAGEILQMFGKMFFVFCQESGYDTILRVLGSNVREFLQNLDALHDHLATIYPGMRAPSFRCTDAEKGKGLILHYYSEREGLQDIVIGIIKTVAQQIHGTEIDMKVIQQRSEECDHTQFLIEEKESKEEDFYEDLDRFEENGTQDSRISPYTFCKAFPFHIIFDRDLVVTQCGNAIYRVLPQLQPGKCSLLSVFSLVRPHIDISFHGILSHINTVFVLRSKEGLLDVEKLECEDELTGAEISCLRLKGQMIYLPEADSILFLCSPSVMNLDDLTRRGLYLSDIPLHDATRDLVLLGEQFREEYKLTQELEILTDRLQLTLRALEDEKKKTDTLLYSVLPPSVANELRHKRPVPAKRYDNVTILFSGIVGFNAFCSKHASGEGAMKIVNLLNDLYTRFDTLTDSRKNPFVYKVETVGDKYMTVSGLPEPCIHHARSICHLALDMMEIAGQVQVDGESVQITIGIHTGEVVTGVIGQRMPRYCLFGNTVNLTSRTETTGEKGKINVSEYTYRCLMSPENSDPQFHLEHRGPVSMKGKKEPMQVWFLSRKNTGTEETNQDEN
T1 sequence (P19686 1-690): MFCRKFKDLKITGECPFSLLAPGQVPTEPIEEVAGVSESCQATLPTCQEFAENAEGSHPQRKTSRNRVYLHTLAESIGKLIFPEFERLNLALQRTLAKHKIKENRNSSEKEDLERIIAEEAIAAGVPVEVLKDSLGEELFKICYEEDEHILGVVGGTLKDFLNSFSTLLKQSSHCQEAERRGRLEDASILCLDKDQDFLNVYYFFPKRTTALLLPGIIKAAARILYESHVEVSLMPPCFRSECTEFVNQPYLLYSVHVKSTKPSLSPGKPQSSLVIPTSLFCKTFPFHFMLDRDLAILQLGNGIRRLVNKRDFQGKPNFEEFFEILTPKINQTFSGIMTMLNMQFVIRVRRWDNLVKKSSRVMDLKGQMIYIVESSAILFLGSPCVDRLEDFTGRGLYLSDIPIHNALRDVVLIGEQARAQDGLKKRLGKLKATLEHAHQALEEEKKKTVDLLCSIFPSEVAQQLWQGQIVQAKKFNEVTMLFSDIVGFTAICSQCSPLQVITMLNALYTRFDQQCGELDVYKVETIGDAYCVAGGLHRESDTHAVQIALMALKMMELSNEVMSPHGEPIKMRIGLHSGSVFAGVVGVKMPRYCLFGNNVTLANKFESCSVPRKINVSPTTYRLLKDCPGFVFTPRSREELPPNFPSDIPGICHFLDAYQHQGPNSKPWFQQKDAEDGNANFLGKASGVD
Assay: Action on recombinant guanylate cyclase reporter cell line
Type: cell-based
Conditions: in some cases mean values obtained from individual determinations
Method: B-2. Action on Recombinant Guanylate Cyclase Reporter Cell Line
The cellular action of the compounds according to the invention is determined on a recombinant guanylate cyclase reporter cell line, as described in F. Wunder et al., Anal. Biochem. 339, 104-112 (2005).
Representative values (MEC=minimal effective concentration) for the compounds according to the invention are shown in the following table (in some cases as mean values obtained from individual determinations): […]

Compound: Cc1nc2c(OCc3c(F)cccc3F)cccn2c1C(=O)NC(CO)CCCC(F)(F)F (single isomer, unassigned; ent-8) [Example 123, ent-8-[(2,6-Difluorobenzyl)oxy]-2-methyl-N-(6,6,6-trifluoro-1-hydroxyhexan-2-yl)imidazo[1,2-a]-pyridine-3-carboxamide]
- MEC (minimal effective concentration): 0.03 µM

Compound: Cc1nc2c(OCc3c(F)cccc3F)cccn2c1C(=O)NC(CC(F)(F)F)C(C)(C)O (single isomer, unassigned; ent-8) [Example 154, ent-8-[(2,6-Difluorobenzyl)oxy]-2-methyl-N-(1,1,1-trifluoro-4-hydroxy-4-methylpentan-3-yl)-imidazo[1,2-a]pyridine-3-carboxamide]
- MEC (minimal effective concentration): 0.03 µM

Compound: Cc1nc2c(OCc3c(F)cccc3F)cccn2c1C(=O)NC(CCC(F)(F)F)C(C)(C)O (single isomer, unassigned; ent-8) [Example 155, ent-8-[(2,6-Difluorobenzyl)oxy]-2-methyl-N-(6,6,6-trifluoro-2-hydroxy-2-methylhexan-3-yl)-imidazo[1,2-a]pyridine-3-carboxamide]
- MEC (minimal effective concentration): 0.1 µM

Compound: Cc1nc2c(OCc3c(F)cccc3F)cccn2c1C(=O)NC(CCCC(F)(F)F)C(C)(C)O (single isomer, unassigned; ent-8) [Example 156, ent-8-[(2,6-Difluorobenzyl)oxy]-2-methyl-N-(7,7,7-trifluoro-2-hydroxy-2-methylheptan-3-yl)-imidazo[1,2-a]pyridine-3-carboxamide]
- MEC (minimal effective concentration): 0.03 µM

Compound: CCOCC(CO)NC(=O)c1c(C)nc2c(OCc3c(F)cccc3F)cccn12 (single isomer, unassigned; ent-8) [Example 161, ent-8-[(2,6-Difluorobenzyl)oxy]-N-(1-ethoxy-3-hydroxypropan-2-yl)-2-methylimidazo[1,2-a]-pyridine-3-carboxamide (enantiomer A)]
- MEC (minimal effective concentration): 1.0 µM

Compound: CCCCC(NC(=O)c1c(C)nc2c(OC(C)c3c(F)cccc3F)cc(C)cn12)C(C)(C)O (single isomer, unassigned; ent-8) [Example 171, ent-8-[1-(2,6-Difluorophenyl)ethoxy]-N-(2-hydroxy-2-methylheptan-3-yl)-2,6-dimethylimidazo-[1,2-a]pyridine-3-carboxamide]
- MEC (minimal effective concentration): 1.0 µM

Compound: Cc1nc2c(OCc3ncccc3F)cccn2c1C(=O)NC(CCCC(F)(F)F)C(C)(C)O (single isomer, unassigned; ent-8) [Example 182, ent-8-[(3-fluoropyridin-2-yl)methoxy]-2-methyl-N-(7,7,7-trifluoro-2-hydroxy-2-methylheptan-3-yl)imidazo[1,2-a]pyridine-3-carboxamide (enantiomer A)]
- MEC (minimal effective concentration): 0.65 µM

Compound: Cc1nc2c(OCc3ncccc3F)cccn2c1C(=O)NC(CCCC(F)(F)F)C(C)(C)O (single isomer, unassigned; ent-8) [Example 183, ent-8-[(3-fluoropyridin-2-yl)methoxy]-2-methyl-N-(7,7,7-trifluoro-2-hydroxy-2-methylheptan-3-yl)imidazo[1,2-a]pyridine-3-carboxamide (enantiomer B)]
- MEC (minimal effective concentration): 0.3 µM

Compound: Cc1cc(OCc2ncccc2F)c2nc(C)c(C(=O)NC(CC(F)(F)F)C(C)(C)O)n2c1 (single isomer, unassigned; ent-8) [Example 185, ent-8-[(3-fluoropyridin-2-yl)methoxy]-2,6-dimethyl-N-(1,1,1-trifluoro-4-hydroxy-4-methylpentan-3-yl)imidazo[1,2-a]pyridine-3-carboxamide (enantiomer B)]
- MEC (minimal effective concentration): 0.3 µM

Compound: Cc1cc(OCc2c(F)cncc2F)c2nc(C)c(C(=O)NC(CCCC(F)(F)F)C(C)(C)O)n2c1 (single isomer, unassigned; ent-8) [Example 189, ent-8-[(3,5-difluoropyridine-4-yl)methoxy]-2,6-dimethyl-N-(7,7,7-trifluoro-2-hydroxy-2-methylheptan-3-yl)imidazo[1,2-a]pyridine-3-carboxamide (enantiomer A)]
- MEC (minimal effective concentration): 1 µM

Compound: Cc1cc(OCc2ncccc2F)c2nc(C)c(C(=O)NC(CCCC(F)(F)C(F)(F)F)C(C)(C)O)n2c1 (single isomer, unassigned; ent-8) [Example 191, ent-8-[(3-fluoropyridin-2-yl)methoxy]-2,6-dimethyl-N-(7,7,8,8,8-pentafluoro-2-hydroxy-2-methyloctan-3-yl)imidazo[1,2-a]pyridine-3-carboxamide (enantiomer A)]
- MEC (minimal effective concentration): 3 µM

Compound: Cc1cc(OCc2ncccc2F)c2nc(C)c(C(=O)NC(CCCC(F)(F)C(F)(F)F)C(C)(C)O)n2c1 (single isomer, unassigned; ent-8) [Example 192, ent-8-[(3-fluoropyridin-2-yl)methoxy]-2,6-dimethyl-N-(7,7,8,8,8-pentafluoro-2-hydroxy-2-methyloctan-3-yl)imidazo[1,2-a]pyridine-3-carboxamide (enantiomer B)]
- MEC (minimal effective concentration): 2 µM

Compound: Cc1cc(OCc2c(F)cncc2F)c2nc(C)c(C(=O)NC(CCC(F)(F)C(F)(F)F)C(C)(C)O)n2c1 (single isomer, unassigned; ent-8) [Example 193, ent-8-[(3,5-difluoropyridine-4-yl)methoxy]-2,6-dimethyl-N-(6,6,7,7,7-pentafluoro-2-hydroxy-2-methylheptan-3-yl)imidazo[1,2-a]pyridine-3-carboxamide (enantiomer A)]
- MEC (minimal effective concentration): 1 µM

Compound: Cc1cc(OCc2ncccc2F)c2nc(C)c(C(=O)NC(CCC(O)C(F)(F)F)C(C)(C)O)n2c1 (single isomer, unassigned; ent-8) [Example 196, ent-8-[(3-fluoropyridin-2-yl)methoxy]-2,6-dimethyl-N-(7,7,7-trifluoro-2,6-dihydroxy-2-methylheptan-3-yl)imidazo[1,2-a]pyridine-3-carboxamide (enantiomer D)]
- MEC (minimal effective concentration): 3 µM

Compound: CCCC[C@H](CO)NC(=O)c1c(C)nc2c(OCc3c(F)cccc3F)cccn12 [Example 1, 8-[(2,6-Difluorobenzyl)oxy]-N-[(2R)-1-hydroxyhexan-2-yl]-2-methylimidazo[1,2-a]pyridine-3-carboxamide]
- MEC (minimal effective concentration): 0.05 µM

Compound: CCCC[C@H](CO)NC(=O)c1c(C)nc2c(OCc3c(F)ccc(F)c3F)cccn12 [Example 2]
- MEC (minimal effective concentration): 0.03 µM

Compound: CCCC[C@H](CO)NC(=O)c1c(C)nc2c(OCc3c(F)cccc3Cl)cccn12 [Example 3]
- MEC (minimal effective concentration): 0.1 µM

Compound: CCCC[C@H](CO)NC(=O)c1c(C)nc2c(OCc3ccccc3Cl)cccn12 [Example 4]
- MEC (minimal effective concentration): 0.1 µM

Compound: CCCC[C@H](CO)NC(=O)c1c(C)nc2c(OCc3ccccc3F)cccn12 [Example 5]
- MEC (minimal effective concentration): 0.1 µM

Compound: CCCC[C@H](CO)NC(=O)c1c(C)nc2c(OCc3cccc(F)c3)cccn12 [Example 6]
- MEC (minimal effective concentration): 0.1 µM

Compound: CCCC[C@H](CO)NC(=O)c1c(C)nc2c(OCc3c(F)c(F)cc(F)c3F)cccn12 [Example 7]
- MEC (minimal effective concentration): 0.3 µM

Compound: CCCC[C@H](CO)NC(=O)c1c(C)nc2c(OCc3c(Cl)cccc3Cl)cccn12 [Example 8]
- MEC (minimal effective concentration): 0.3 µM

Compound: CCCC[C@H](CO)NC(=O)c1c(C)nc2c(OCc3cccc(Cl)c3Cl)cccn12 [Example 9]
- MEC (minimal effective concentration): 0.5 µM

Compound: CCCC[C@H](CO)NC(=O)c1c(C)nc2c(OCc3cccc(F)c3F)cccn12 [Example 10]
- MEC (minimal effective concentration): 0.3 µM

Compound: CCCC[C@H](CO)NC(=O)c1c(C)nc2c(OCc3cccc(C)c3F)cccn12 [Example 11]
- MEC (minimal effective concentration): 1.5 µM

Compound: CCCC[C@H](CO)NC(=O)c1c(C)nc2c(OCc3cccc4c3OC(F)(F)O4)cccn12 [Example 12]
- MEC (minimal effective concentration): 3.0 µM

Compound: CCCC[C@H](CO)NC(=O)c1c(C)nc2c(OCc3c(C)cccc3C)cccn12 [Example 13]
- MEC (minimal effective concentration): 3.0 µM
